# In patent US20240059729A1, “MULTIFUNCTIONAL CYCLIC DINUCLEOTIDE AND USE THEREOF” (TYLIGAND BIOSCIENCE (SHANGHAI) LIMITED, priority 2020, published 2024):
# Structures can show the parent of a compound that is named as a salt.
# System: IFN-β secretion by THP-1 cells
# Assay: Activation of IFN-β secretion by THP-1 cells (Human IFN-beta ELISA)
# Type: cell-based
# Settings: Homo sapiens, THP-1, 24 h, THP-1 cells, 24 hours, IFN-β ELISA
# Experimental: THP-1 cell, a human monocytic leukemia cell line, has the STING phenotype of HAQ type, i.e., R71H-G230A-R293Q. This assay used the Human IFN-beta DuoSet ELISA Kit from R & D (R & D, Cat #DY814-05) and the DuoSet ELISA Ancillary Reagent Kit 2 (R & D, Cat #DY008) to evaluate the activation of IFN-β secretion from THP-1 cells by representative compounds of the invention.
# In thawing the THP-1 cells (ATCC #TIB-202), a cell freezing tube was quickly shaken in a water bath at 37° C. to thaw the cells within 1 min. The thawed cell suspension was taken and evenly mixed with an RPMI1640 medium (Hyclone, product #SH30027.01) containing 10% FBS (Life Technology, Cat #10099-141), centrifuged for 5 min at 1000 rpm, and the supernatant was discarded. The cell pellet was resuspended in 5 mL of the complete medium (RPMI 1640 medium containing 10% FBS), placed into a cell culture flask with a bottom area of 25 cm^2, and incubated in a cell incubator at 37° C., 5% CO2 and 95% humidity. When the cell confluence reached about 80%, the cells were passaged. All the cells in the culture flask were transferred to a 15 mL centrifuge tube, centrifuged for 5 min at 1000 rpm, and the supernatant was discarded. 5 mL of fresh complete medium was added to re-suspend the cell pellet, 1 mL of which was taken to place in a cell culture flask with a bottom area of 25 cm^2, supplemented with 4 mL of fresh complete medium for further incubation. When the cell confluence reached about 80% again, plating was conducted following the procedure of cell passage, retaining 1/5 cell suspension for further inculation and remaining 4/5 of the cell suspension in a 15 mL centrifuge tube. The cell suspension was centrifuged to discard the old culture medium, washed once using RPMI1640 culture medium (serum-free), and centrifuged to remove the supernatant. The cells were then re-suspended in RPMI1640 culture medium (serum-free). Cell viability was then detected by Trypan blue exclusion test and to be used for plating when the cell viability was confirmed to be more than 95%. A cell suspension with a density of 1.1×10^6 viable cells/mL was prepared using RPMI1640 culture medium (serum-free), and 180 μL of the cell suspension was added to a 96-well cell culture plate (NUNC Company, Cat #167008) so that the cell density in the plate was 2×10^5 viable cells/well.
# (§1) A 10 mM stock solution of the compounds in DMSO was first serially diluted at 3.16-fold with DMSO (Sigma, Cat #D2650) to the 5th concentration, and the 6th concentration was set as DMSO control (compound-free). Then, the DMSO solutions containing different concentrations of the compounds were diluted at 10-fold with PBS so that the DMSO content in each compound solution of various concentrations was 10%. Finally, 20 μL of each of such solutions was added into corresponding cell culture plate to provide an initial compound concentration of 100 μM, with the dilution fold of adjacent concentrations being 3.16 and the DMSO content in the cell culture plate being 1%. The cell plate was placed in a cell incubator for further 24 hours.
# ELISA detection was conducted referring to the instructions from R & D System, Cat #DY814-05.
# ELISA plate coating: PBS (R & D System Cat #DY006) was used to dilute the capture antibody (mouse anti-human IFN-β capture antibody PART #844508) to provide the working concentration, and 100 μL capture antibody working solution was added to a 96-well ELISA plate which was then sealed and incubated overnight at room temperature. Upon discarding the capture antibody working solution, the cell plate was washed 3 times with a washing buffer (0.05% Tween-20 in PBS, pH 7.2-7.4, R & D System Cat #WA126) at 400 μL of the washing buffer per well, and the washing buffer was thoroughly removed after each washing, with the final washing to be completely removed of the wash buffer by inverting and claping the plate to a clean piece of paper. […]
row,SMILES,EC50
1,"Nc1nc2c(ncn2[C@@H]2O[C@@H]3CO[P@@](=O)(S)OC4C(F)[C@H](n5cnc6c(N)nc(Cl)nc65)O[C@@H]4CO[P@](=O)(S)OC2C3O)c(=O)[nH]1 (stereo partly drawn) [Example 8, (2′,3′)-cyclo-(Sp,Rp)-[2′-O-phosphorothioate-diester-guanosine]-[3′-O-phosphorothioate-diester-2-chloro-2′-deoxy-2′-fluoro-beta-adenosine] diammonium salt]",10.1 to 100 µM
2,"Nc1nc2c(ncn2[C@@H]2O[C@@H]3CO[P@](=O)(S)OC4C(F)[C@H](n5cnc6c(N)nc(Cl)nc65)O[C@@H]4CO[P@](=O)(S)OC2C3O)c(=O)[nH]1 (stereo partly drawn) [Example 9, (2′,3′)-cyclo-(Sp,Sp)-[2′-O-phosphorothioate-diester-guanosine]-[3′-O-phosphorothioate-diester-2-chloro-2′-deoxy-2′-fluoro-beta-adenosine] diammonium salt]",10.1 to 100 µM
3,"Nc1nc2c(ncn2[C@@H]2O[C@@H]3CO[P@@](=O)(S)OC4C[C@H](n5cnc6c(N)nc(Cl)nc65)O[C@@H]4CO[P@](=O)(S)OC2C3O)c(=O)[nH]1 (stereo partly shown) [Example 11, (2′,3′)-cyclo-(Sp,Rp)-[2′-O-phosphorothioate-diester-guanosine]-[3′-O-phosphorothioate-diester-2-chloro-2′-deoxy-adenosine] diammonium salt]",10.1 to 100 µM
4,"Nc1nc(Cl)nc2c1ncn2[C@@H]1O[C@@H]2CO[P@@](=O)(S)OC3[C@@H](CO[P@@](=O)(S)O[C@@H]2C1F)O[C@@H](n1cnc2c(N)ncnc21)[C@H]3F (stereo partly drawn) [Example 18, (3′,3′)-cyclo-(Rp,Rp)-[3′-O-phosphorothioate-diester-2′-deoxy-2′-fluoroadenosine]-[3′-O-phosphorothioate-diester-2-chloro-2′-deoxy-2′-fluoro-beta-adenosine]-0.5-ammonium-1.5-1,8-diazabicycloundec-7-ene-salt]",10.1 to 100 µM
5,"Nc1ncnc2c1ncn2[C@@H]1O[C@@H]2CO[P@@](=O)(S)O[C@@H]3C[C@H](n4cnc5c(N)nc(Cl)nc54)O[C@@H]3CO[P@@](=O)(S)OC2[C@@H]1F (stereo partly shown) [Example 19, (3′,3′)-cyclo-(Rp,Rp)-[3′-O-phosphorothioate-diester-2′-deoxy-2′-fluoroadenosine]-[3′-O-phosphorothioate-diester-2-chloro-2′-deoxyadenosine] 0.5-1,8-diazabicycloundec-7-ene-salt]",10.1 to 100 µM
6,"Nc1nc2c(ncn2[C@@H]2O[C@@H]3CO[P@@](=O)(S)OC4C[C@H](n5cnc6c(N)nc(Cl)nc65)O[C@@H]4CO[P@@](=O)(S)OC3C2F)c(=O)[nH]1 (stereo partly shown) [Example 21, (3′,3′)-cyclo-(Rp,Rp)-[3′-O-phosphorothioate-diester-2′-deoxy-2′-fluoroguanosine]-[3′-O-phosphorothioate-diester-2-chloro-2′-deoxyadenosine] diammonium salt]",10.1 to 100 µM
7,"CNc1nc(N)c2ncn([C@@H]3O[C@@H]4CO[P@@](=O)(S)O[C@H]5C(O)[C@@H](CO[P@@](=O)(S)O[C@@H]4C3F)O[C@H]5n3cnc4c(=O)[nH]c(N)nc43)c2n1 (stereo partly drawn) [Example 26, (2′,3′)-cyclo-(Rp,Rp)-[2′-O-phosphorothioate-diester-guanosine]-[3′-O-phosphorothioate-diester-2-methylamino-2′-deoxy-2′-fluoro-beta-adenosine] diammonium salt]",1 to 10 µM

# Same assay, conditions: THP-1 cells, 24 hours, IFN-β ELISA
row,SMILES,EC50
1,"Nc1nc2c(ncn2[C@@H]2O[C@@H]3COP(=O)(O)O[C@H]4[C@@H](O)[C@H](n5cnc6c(N)ncnc65)O[C@@H]4COP(=O)(O)O[C@@H]2[C@@H]3O)c(=O)[nH]1 [2′,3′-cGAMP, cGAMP, reference compound]",10.1 to 100 µM

# Same assay, conditions: THP-1 cells, 24 hours, IFN-β ELISA; diammonium salt
row,SMILES,EC50
1,"Nc1nc2c(ncn2[C@@H]2O[C@@H]3CO[P@@](=O)(S)OC4C(F)[C@H](n5cnc6c(N)nc(Cl)nc65)O[C@@H]4CO[P@](=O)(S)OC3C2O)c(=O)[nH]1 (stereo partly drawn) [Example 15, (3′,3′)-cyclo-(Sp,Rp)-[3′-O-phosphorothioate-diester-guanosine]-[3′-O-phosphorothioate-diester-2-chloro-2′-deoxy-2′-fluoro-beta-adenosine] diammonium salt]",10.1 to 100 µM

# System: CT26 cells
# Assay: Inhibition of proliferation of CT26 cells (CellTiter-Glo)
# Type: cell-based, mouse
# Settings: Mus musculus, 120 hours, CellTiter-Glo
# Experimental: CT26 cell is a mouse colorectal cancer cell line. This assay used the CellTiter-Glo Luminescence Cell Vitality Assay kit from Promega to evaluate the inhibitory activity of the compounds on the proliferation of CT26 cells.
# In thawing the CT26 cells (ATCC #CRL-2638), a cell freezing tube was quickly shaken in a water bath at 37° C. to thaw the cells within 1 min. The thawed cell suspension was taken and evenly mixed with DMEM medium (GE, Cat #SH30243.01) containing 10% FBS (GIBCO, Cat #10099-141), centrifuged for 5 min at 1000 rpm, and the supernatant was discarded. The cell pellet was resuspended in 5 mL of the complete medium (DMEM medium containing 10% FBS), placed into a cell culture flask with a bottom area of 25 cm^2, and incubated in a cell incubator at 37° C., 5% CO2 and 95% humidity. When the cell confluence reached 70%˜80%, the cells were passaged. All the cells in the culture flask were transferred to a 15 mL centrifuge tube, centrifuged for 5 min at 1000 rpm, and the supernatant was discarded. 5 mL of fresh complete medium was added to re-suspend the cell pellet, 1 mL of which was taken to place in a cell culture flask with a bottom area of 25 cm^2, supplemented with 4 mL of fresh complete medium for further incubation. When the cell confluence reached 70%-80% again, plating was conducted following the procedure of cell passage, retaining 1/5 cell suspension for further inculation and remaining 4/5 of the cell suspension in a 15 mL centrifuge tube.
# The cell suspension was centrifuged to discard the old culture medium, washed once using DMEM medium (serum-free), and centrifuged to remove the supernatant. The cells were then re-suspended in DMEM medium (serum-free). Cell viability was then detected by Trypan blue exclusion test and to be used for plating when the cell viability was confirmed to be more than 95%. A cell suspension with a density of 1.1×10^4 viable cells/mL was prepared using DMEM medium (serum-free), and 90 μL of the cell suspension was added to a 96-well 96-well transparent flat-bottomed black-walled cell culture plate (Corning, Cat #3603) so that the cell density in the plate was 1000 viable cells/well. A control group containing no cells, no compound, and complete medium only (i.e., a culture medium control), and a control group containing no compound but cells (i.e., a cell control) were set. The cell plates were placed in a cell incubator overnight.
# as §1, with “9th” for “5th”, “10th” for “6th”, “PBS (Solarbio, Cat #P1020)” for “PBS”, “10” for “20”, “120” for “24”
# After 120 hours, the CellTiter-Glo reagent (Promega, Cat #G7572) was thawed and the plates were equilibrated at room temperature for 30 min. 100 uL of CellTiter-Glo was added to each well of the plate, and the cells were lysed thoroughly by shaking on an orbital shaker for 5 min. The plates were placed at room temperature for 20 min to stabilize the luminescence signal, and the luminescence value of each well was scanned at full wavelength with a multifunctional microplate reader (Molecular Devices, Spectramax M3). […]
row,SMILES,IC50
1,"Nc1nc(Cl)nc2c1ncn2[C@H]1C[C@H](O)[C@@H](CO)O1 [Cladribine, cladribine, reference compound]",< 1 µM
2,"Nc1nc(Cl)nc2c1ncn2[C@@H]1O[C@H](CO)[C@@H](O)[C@@H]1F [Clofarabine—, clofarabine, reference compound]",< 1 µM
3,"Nc1nc(Cl)nc2c1ncn2[C@@H]1O[C@@H]2CO[P@@](=O)(S)OC3[C@@H](F)[C@H](n4cnc5c(N)nc(Cl)nc54)O[C@@H]3CO[P@@](=O)(S)O[C@@H]2C1F (stereo partly drawn) [Example 1, (3′,3′)-cyclo-(Rp,Rp)-bis-[3′-O-phosphorothioate-diester-2-chloro-2′-deoxy-2′-fluoro-beta-adenosine]1.5-ammonium-0.5-1,8-diazabicycloundec-7-ene-salt]",1 to 10 µM
4,"Nc1nc(Cl)nc2c1ncn2[C@H]1CC2O[P@](=O)(S)OC[C@H]3O[C@@H](n4cnc5c(N)nc(Cl)nc54)CC3O[P@](=O)(S)OC[C@H]2O1 (stereo partly shown) [Example 2, (3′,3′)-cyclo-(Rp,Rp)-bis-[3′-O-phosphorothioate-diester-2-chloro-2′-deoxyadenosine]]",1 to 10 µM
